Experimental data from the NIST ThermoML archive (doi:10.1016/j.fluid.2008.03.012).

Experiment: excess molar enthalpy (molar enthalpy of mixing); xn = mol fraction of the nth substance listed
Conditions: Liquid, Flow calorimetry

CCOC(=O)CC(C)=O [ethyl 3-oxobutanoate] + CCCO
excess molar enthalpy [kcal/mol]
Conditions	298.15 K	313.15 K	328.15 K
100 kPa, x1 = 0.1001	0.208	0.237	0.256
100 kPa, x1 = 0.1998	0.324	0.378	0.414
100 kPa, x1 = 0.3003	0.396	0.464	0.509
100 kPa, x1 = 0.3502	0.42	0.493	0.539
100 kPa, x1 = 0.3994	0.436	0.512	0.558
100 kPa, x1 = 0.4501	0.446	0.522	0.565
100 kPa, x1 = 0.4997	0.45	0.524	0.564
100 kPa, x1 = 0.5505	0.446	0.517	0.553
100 kPa, x1 = 0.5997	0.435	0.501	0.532
100 kPa, x1 = 0.6497	0.417	0.475	0.504
100 kPa, x1 = 0.7007	0.39	0.441	0.462
100 kPa, x1 = 0.7996	0.307	0.341	0.351
100 kPa, x1 = 0.9004	0.175	0.187	0.193
10000 kPa, x1 = 0.1003	0.204	0.229	0.254
10000 kPa, x1 = 0.2001	0.318	0.364	0.407
10000 kPa, x1 = 0.3007	0.389	0.45	0.503
10000 kPa, x1 = 0.3506	0.412	0.474	0.533
10000 kPa, x1 = 0.3998	0.427	0.492	0.552
10000 kPa, x1 = 0.4505	0.436	0.502	0.563
10000 kPa, x1 = 0.5001	0.439	0.503	0.563
10000 kPa, x1 = 0.5509	0.435	0.498	0.552
10000 kPa, x1 = 0.6	0.425	0.483	0.53
10000 kPa, x1 = 0.6501	0.407	0.457	0.502
10000 kPa, x1 = 0.701	0.38	0.421	0.461
10000 kPa, x1 = 0.7999	0.3	0.322	0.35
10000 kPa, x1 = 0.9005	0.17	0.179	0.19
